We go through 17 compounds from patent US10799507B2, “5-(7H-pyrrolo[2,3-d]pyrimidin-4-yl)-5-azaspiro[2.5]octane-8-carboxylic acid derivatives as novel JAK kinase inhibitors” (LEO Pharma A/S, priority 2017, dated 2020).

Series [1] addresses JAK1 (Homo sapiens (Human), UniProt P23458). Kind of series: JAK kinase assay (HTRF), JAK1. The series is classed as biochemical. Conditions: catalytic domain, ATP at Km (7 μM). An outline of the steps: (§1)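 Catalytic-domain human JAK1 (GST-tagged, aa 850-1154) or His-tagged JAK2, baculovirus-expressed, phosphorylated 1 µM biotinylated TK peptide at Km ATP (JAK1 7 µM, 10 mM MgCl2, 50 nM SEB; JAK2 4 µM, 5 mM MgCl2) in pH 7.0 Hepes, 20-30 min RT. EDTA stop; overnight streptavidin-XL665/cryptate HTRF read.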
(TR-FRET usually uses a lanthanide donor and a delayed reading to cut background.)

Series [2] deals with TYK2 (Homo sapiens (Human), UniProt P29597). Kind of series: JAK kinase assay (HTRF), TYK2. The series is classed as biochemical. Conditions: catalytic domain, ATP at Km (13 μM). An outline of the steps: (§2)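 HTRF read-out of biotinylated TK peptide phosphorylation (1 μM) after a 20-30 min RT reaction in pH 7.0 Hepes buffer with 5 mM MgCl2 and 0.75% DMSO. JAK3 (His-tagged catalytic domain) used 2 μM ATP; TYK2 (GST-tagged, aa 871-1187) used 13 μM ATP plus 50 nM SEB, each at ATP Km.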
TYK2, sequence (P29597 871-1187): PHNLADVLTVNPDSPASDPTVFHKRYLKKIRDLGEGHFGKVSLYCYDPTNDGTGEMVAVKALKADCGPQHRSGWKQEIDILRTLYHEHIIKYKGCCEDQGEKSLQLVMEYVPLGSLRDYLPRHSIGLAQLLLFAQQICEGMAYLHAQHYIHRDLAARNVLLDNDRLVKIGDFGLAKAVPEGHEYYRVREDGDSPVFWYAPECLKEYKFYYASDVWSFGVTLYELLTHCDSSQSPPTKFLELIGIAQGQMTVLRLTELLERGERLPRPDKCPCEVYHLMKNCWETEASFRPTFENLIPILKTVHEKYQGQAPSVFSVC

The nature of series [3]: in vitro metabolic stability in human liver microsomes. In kind it is in vitro ADME. Conditions: human, liver microsomes, 0.5 μM compound, 0.5 mg/mL microsomes, NADPH, 40 min, 37° C.; read-out: Human liver microsome Clapp (apparent intrinsic clearance). How it is done: To assess the in vitro metabolic stability, the compounds (0.5 μM) were incubated in duplicates with human liver microsomes (0.5 mg/mL) in phosphate buffer and NADPH, in 96-well plates for 40 min (37° C.), using a liquid handling robot (Hamilton Microlab Star). Sample aliquots were taken at 0, 5, 10, 20 and 40 min, and dispensed into cold acetonitrile, in order to stop the reactions. The plates were centrifuged for 30 minutes before the samples were analyzed using liquid chromatography coupled to a time-of-flight mass spectrometer (AB Sciex API5600). The compound depletion over time was used to estimate the elimination rate constant, from which the apparent intrinsic clearance, Clapp, was calculated and the values are listed in Table 2.
For orientation: Liver microsomes are a subcellular fraction often used to study metabolism.

Series [4] has as its target JAK3 (Homo sapiens (Human), UniProt P52333). Kind of series: JAK kinase assay (HTRF), JAK3. The following applies: catalytic domain, ATP at Km (2 μM). In kind it is biochemical. An outline of the steps: as §2
Series [5] concerns the target JAK2 (Homo sapiens (Human), UniProt O60674). Kind of series: JAK kinase assay (HTRF), JAK2. The series is classed as biochemical. Conditions: catalytic domain, ATP at Km (4 μM). An outline of the steps:
as §1

JAK1, sequence (P23458 850-1154): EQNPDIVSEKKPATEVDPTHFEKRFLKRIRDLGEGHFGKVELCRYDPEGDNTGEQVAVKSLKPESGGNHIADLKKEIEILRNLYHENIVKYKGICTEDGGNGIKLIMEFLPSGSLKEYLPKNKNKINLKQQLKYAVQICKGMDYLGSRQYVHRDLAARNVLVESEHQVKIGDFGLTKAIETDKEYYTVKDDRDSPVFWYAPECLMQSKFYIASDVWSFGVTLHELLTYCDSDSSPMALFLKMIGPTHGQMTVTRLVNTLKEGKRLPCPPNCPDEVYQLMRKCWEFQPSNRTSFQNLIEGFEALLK
JAK2, sequence (O60674 849-1124): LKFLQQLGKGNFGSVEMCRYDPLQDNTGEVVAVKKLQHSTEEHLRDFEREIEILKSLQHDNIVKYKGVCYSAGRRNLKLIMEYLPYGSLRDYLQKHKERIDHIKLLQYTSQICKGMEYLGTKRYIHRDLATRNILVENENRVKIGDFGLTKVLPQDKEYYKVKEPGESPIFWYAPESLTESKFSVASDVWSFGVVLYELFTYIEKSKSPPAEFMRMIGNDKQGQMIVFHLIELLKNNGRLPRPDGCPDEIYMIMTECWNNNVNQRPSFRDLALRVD
JAK3, sequence (P52333 822-1111): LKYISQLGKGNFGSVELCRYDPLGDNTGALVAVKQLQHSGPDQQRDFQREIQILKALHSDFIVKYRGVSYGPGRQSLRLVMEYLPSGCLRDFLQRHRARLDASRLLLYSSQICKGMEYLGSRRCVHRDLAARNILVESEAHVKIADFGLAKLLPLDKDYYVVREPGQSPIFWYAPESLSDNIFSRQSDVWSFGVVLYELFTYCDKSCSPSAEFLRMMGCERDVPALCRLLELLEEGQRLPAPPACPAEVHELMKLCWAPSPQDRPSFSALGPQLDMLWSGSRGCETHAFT

As to `O=C(OCC1CC(F)(F)C1)[C@H]1CCN(c2ncnc3[nH]ccc23)CC12CC2` [Example 154, (3,3-difluorocyclobutyl)methyl (8S)-5-(7H-pyrrolo[2,3-d]pyrimidin-4-yl)-5-azaspiro[2.5]octane-8-carboxylate], the 50% effective concentration (EC50) (in general, the concentration needed to bring the measured effect to its halfway point) was 0.9 nM in series [1], 15.7 nM in series [2], 5.1 nM in series [4] and 1.7 nM in series [5]. The CLint scaled at 0.5 μM in series [3] amounted to 149 mL/min/kg.

As to `O=C(N[C@@H](CO)[C@@H](O)c1ccc(F)cn1)[C@H]1CCN(c2ncnc3[nH]ccc23)CC12CC2` [Example 105, (8S)-N-[(1S,2R)-2-(5-fluoro-2-pyridyl)-2-hydroxy-1-(hydroxymethyl)ethyl]-5-(7H-pyrrolo[2,3-d]pyrimidin-4-yl)-5-azaspiro[2.5]octane-8-carboxamide], the EC50 in series [1] is 10.2 nM; in series [2] it was 153 nM; in series [4], 56 nM; in series [5], 11.2 nM. The CLint scaled at 0.5 μM in series [3] came to 15 mL/min/kg.

As for `O=C(NCC1CCCC1)C1CCN(c2ncnc3[nH]ccc23)CC12CC2` (stereo not shown) [Example 82, N-(cyclopentylmethyl)-5-(7H-pyrrolo[2,3-d]pyrimidin-4-yl)-5-azaspiro[2.5]octane-8-carboxamide], the EC50 worked out at 6.8 nM in series [1], 400 nM in series [2], 38.7 nM in series [4] and 11.5 nM in series [5]. For the same compound, the CLint scaled at 0.5 μM in series [3] stood at 198 mL/min/kg.

With `C[C@H](NC(=O)[C@H]1CCN(c2ncnc3[nH]ccc23)CC12CC2)c1ccc(C#N)c(F)c1` [Example 14, (8S)-N-[(1S)-1-(4-cyano-3-fluoro-phenyl)ethyl]-5-(7H-pyrrolo[2,3-d]pyrimidin-4-yl)-5-azaspiro[2.5]octane-8-carboxamide], the 50% effective concentration (EC50) in series [1] was 0.9 nM; in series [2], 26.8 nM; in series [4] it was 6.5 nM; in series [5], 2.2 nM. In addition, the CLint scaled at 0.5 μM in series [3] is > 200 mL/min/kg.

As to `O=C(OCC1(CO)CCC1)[C@H]1CCN(c2ncnc3[nH]ccc23)CC12CC2` [Example 157, [1-(hydroxymethyl)cyclobutyl]methyl (8S)-5-(7H-pyrrolo[2,3-d]pyrimidin-4-yl)-5-azaspiro[2.5]octane-8-carboxylate], the EC50 in series [1] came out at 0.8 nM; in series [2] it was 9 nM; in series [4] it was 6.6 nM; in series [5], 2.1 nM. In addition, in series [3], the CLint scaled at 0.5 μM is > 200 mL/min/kg.

`O=C(NC[C@H](O)c1ccccc1)C1CCN(c2ncnc3[nH]ccc23)CC12CC2` (stereo partly drawn) [Example 103, N-[(2R)-2-hydroxy-2-phenyl-ethyl]-5-(7H-pyrrolo[2,3-d]pyrimidin-4-yl)-5-azaspiro[2.5]octane-8-carboxamide]: the EC50 was 9.9 nM in series [1], 509 nM in series [2], 40.6 nM in series [4] and 21.4 nM in series [5]. Also, the CLint scaled at 0.5 μM in series [3] worked out at 128 mL/min/kg.

With `O=C(N[C@H](CO)c1ccccc1)C1CCN(c2ncnc3[nH]ccc23)CC12CC2` (stereo partly drawn) [Example 127, N-[(1S)-2-hydroxy-1-phenyl-ethyl]-5-(7H-pyrrolo[2,3-d]pyrimidin-4-yl)-5-azaspiro[2.5]octane-8-carboxamide], the EC50 in series [1] came to 19.9 nM; in series [2] it was 1100 nM; in series [4], 68.1 nM; in series [5], 52.1 nM. Also, the CLint scaled at 0.5 μM in series [3] stood at 44 mL/min/kg.

In the case of `C[C@H](NC(=O)[C@H]1CCN(c2ncnc3[nH]ccc23)CC12CC2)[C@H](O)c1ccc(F)cc1` [Example 45, (8S)-N-[(1S,2R)-2-(4-fluorophenyl)-2-hydroxy-1-methyl-ethyl]-5-(7H-pyrrolo[2,3-d]pyrimidin-4-yl)-5-azaspiro[2.5]octane-8-carboxamide], the EC50 turned out to be 3.1 nM in series [1], 37.9 nM in series [2], 15.7 nM in series [4] and 4.6 nM in series [5]. Moreover, the CLint scaled at 0.5 μM in series [3] was > 200 mL/min/kg.

For the compound `C[C@H](NC(=O)[C@H]1CCN(c2ncnc3[nH]ccc23)CC12CC2)[C@@H](O)c1ccc(F)c(F)c1` [Example 149, (8S)-N-[(1S,2S)-2-(3,4-difluorophenyl)-2-hydroxy-1-methyl-ethyl]-5-(7H-pyrrolo[2,3-d]pyrimidin-4-yl)-5-azaspiro[2.5]octane-8-carboxamide], the EC50 worked out at 0.4 nM in series [1], 4.2 nM in series [2], 0.6 nM in series [4] and 200 nM in series [5]. Further, the CLint scaled at 0.5 μM in series [3] was > 200 mL/min/kg.

As for `O=C(NCC1(CO)CC(F)(F)C1)C1CCN(c2ncnc3[nH]ccc23)CC12CC2` (stereo not shown) [Example 35, N-[[3,3-difluoro-1-(hydroxymethyl)cyclobutyl]methyl]-5-(7H-pyrrolo[2,3-d]pyrimidin-4-yl)-5-azaspiro[2.5]octane-8-carboxamide], the EC50 in series [1] came to 1.9 nM; in series [2] it was 71.8 nM; in series [4], 8.6 nM; in series [5], 4.8 nM. For the same compound, the CLint scaled at 0.5 μM in series [3] turned out to be 41 mL/min/kg.

In the case of `O=C(NCC1(O)CCCCC1)[C@H]1CCN(c2ncnc3[nH]ccc23)CC12CC2` [Example 74, (8S)-N-[(1-hydroxycyclohexyl)methyl]-5-(7H-pyrrolo[2,3-d]pyrimidin-4-yl)-5-azaspiro[2.5]octane-8-carboxamide], the EC50 in series [1] came to 6.1 nM; in series [2] it was 55.7 nM; in series [4], 23.2 nM; in series [5], 15.3 nM. Further, the CLint scaled at 0.5 μM in series [3] was 37 mL/min/kg.

In the case of `O=C(NC[C@H](O)C1CCCCC1)[C@H]1CCN(c2ncnc3[nH]ccc23)CC12CC2` [Example 15, (8S)-N-[(2R)-2-cyclohexyl-2-hydroxy-ethyl]-5-(7H-pyrrolo[2,3-d]pyrimidin-4-yl)-5-azaspiro[2.5]octane-8-carboxamide], the EC50 in series [1] turned out to be 0.9 nM; in series [2], 7.4 nM; in series [4] it was 3.7 nM; in series [5] it was 1.7 nM. Also, the CLint scaled at 0.5 μM in series [3] was > 200 mL/min/kg.

In the case of `O=C(OCC1(CO)CC(F)(F)C1)[C@H]1CCN(c2ncnc3[nH]ccc23)CC12CC2` [Example 160, [3,3-difluoro-1-(hydroxymethyl)cyclobutyl]methyl (8S)-5-(7H-pyrrolo[2,3-d]pyrimidin-4-yl)-5-azaspiro[2.5]octane-8-carboxylate], the EC50 in series [1] worked out at 0.3 nM; in series [2], 3.7 nM; in series [4], 1.8 nM; in series [5], 0.8 nM. In addition, in series [3], the CLint scaled at 0.5 μM is 121 mL/min/kg.

In the case of `Cc1ccc([C@H](O)CNC(=O)[C@H]2CCN(c3ncnc4[nH]ccc34)CC23CC3)cc1` [Example 64, (8S)-N-[(2S)-2-hydroxy-2-(p-tolyl)ethyl]-5-(7H-pyrrolo[2,3-d]pyrimidin-4-yl)-5-azaspiro[2.5]octane-8-carboxamide], the EC50 in series [1] came to 4.5 nM; in series [2] it was 90.9 nM; in series [4], 28.5 nM; in series [5] it was 6.7 nM. In series [3], the CLint scaled at 0.5 μM was > 200 mL/min/kg.

Turning to `C[C@H](NC(=O)[C@H]1CCN(c2ncnc3[nH]ccc23)CC12CC2)[C@@H](O)C1CCCC1` [Example 5, (8S)-N-[(1S,2S)-2-cyclopentyl-2-hydroxy-1-methyl-ethyl]-5-(7H-pyrrolo[2,3-d]pyrimidin-4-yl)-5-azaspiro[2.5]octane-8-carboxamide], the EC50 in series [1] was determined as 0.6 nM; in series [2], 6.3 nM; in series [4], 2.3 nM; in series [5], 1.1 nM. The CLint scaled at 0.5 μM in series [3] is > 200 mL/min/kg.

As to `C[C@@H](NC(=O)C1CCN(c2ncnc3[nH]ccc23)CC12CC2)c1ccc(C#N)cc1` (stereo partly drawn) [Example 111, N-[(1R)-1-(4-cyanophenyl)ethyl]-5-(7H-pyrrolo[2,3-d]pyrimidin-4-yl)-5-azaspiro[2.5]octane-8-carboxamide], the EC50 in series [1] is 11.2 nM; in series [2], 930 nM; in series [4], 123 nM; in series [5], 52.1 nM. Moreover, in series [3], the CLint scaled at 0.5 μM amounted to 111 mL/min/kg.

On to `C[C@H](NC(=O)[C@H]1CCN(c2ncnc3[nH]ccc23)CC12CC2)[C@@H](O)c1ccc(F)cc1` [Example 6, (8S)-N-[(1S,2S)-2-(4-fluorophenyl)-2-hydroxy-1-methyl-ethyl]-5-(7H-pyrrolo[2,3-d]pyrimidin-4-yl)-5-azaspiro[2.5]octane-8-carboxamide], for which the EC50 came to 0.6 nM in series [1], 7 nM in series [2], 7.4 nM in series [4] and 1.4 nM in series [5]. The CLint scaled at 0.5 μM in series [3] is > 200 mL/min/kg.
